Experimental data from PubChem BioAssay AID330 (DTP/NCI, 2004).
“And” between values parts separate entries of the source, which are not always exact repeats. Identical values can stand only once. Toxic doses and inconclusive results are not listed.

Tested on: P388 leukemia ip, CD2F1 mice, survival T/C
Assay: NCI In Vivo Anticancer Drug Screen. Data for tumor model P388 Leukemia (intraperitoneal) in CD2F1 (CDF1) mice
Conditions: endpoint: median survival time, higher = longer survival
Outline: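 Mice carrying the transplanted tumor received test compound or vehicle. Survival was recorded in each group, and the value is the treated-group measurement divided by that of the vehicle-treated control group.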

[1] = dose: 12.5 mg/kg/injection, schedule: Q04DX003 (ip), vehicle: saline
[2] = dose: 25.0 mg/kg/injection, schedule: Q04DX003 (ip), vehicle: saline
[3] = dose: 12.5 mg/kg/injection, schedule: Q01DX009 (ip), vehicle: saline with Tween-80
[4] = dose: 25.0 mg/kg/injection, schedule: Q01DX009 (ip), vehicle: saline with Tween-80
[5] = dose: 6.25 mg/kg/injection, schedule: Q01DX009 (ip), vehicle: saline with Tween-80
[6] = dose: 60.0 mg/kg/injection, schedule: Q01DX005 (ip), vehicle: saline with Tween-80
[7] = dose: 120.0 mg/kg/injection, schedule: Q01DX005 (ip), vehicle: saline with Tween-80
[8] = dose: 240.0 mg/kg/injection, schedule: Q01DX005 (ip), vehicle: saline with Tween-80

CC(/C=C/c1ccco1)=N\NC(=S)Nc1ccc(Cl)cc1
T/C (dose: 100.0 mg/kg/injection, schedule: Q01DX001 (ip), vehicle: Klucel (hydroxypropylcellulose) (HPC)): 91 % of control
T/C (dose: 200.0 mg/kg/injection, schedule: Q01DX001 (ip), vehicle: Klucel (hydroxypropylcellulose) (HPC)): 100 % of control
T/C (dose: 400.0 mg/kg/injection, schedule: Q01DX001 (ip), vehicle: Klucel (hydroxypropylcellulose) (HPC)): 100 % of control

CCOP(=O)(O)C1CCCC(C)[N-]1.CCOP(=O)(O)C1CCCC(C)[N-]1.CCOP(=O)(O)C1CCCC(C)[N-]1.[Fe+3] (stereo not drawn)
T/C [1]: 91 % of control
T/C [2]: 95 % of control
T/C (dose: 50.0 mg/kg/injection, schedule: Q04DX003 (ip), vehicle: saline): 94 % of control
T/C (dose: 400.0 mg/kg/injection, schedule: Q04DX003 (ip), vehicle: saline): 86 % of control

CCN(CC)CCn1[nH]c2c3ccc(=O)cc3sc3c(NCCN)ccc1c32
T/C (dose: 3.12 mg/kg/injection, schedule: Q01DX005 (ip), vehicle: water): 122 % of control and 229 % of control and 242 % of control
T/C (dose: 6.25 mg/kg/injection, schedule: Q01DX005 (ip), vehicle: water): 184 % of control and 250 % of control and 280 % of control
T/C (dose: 12.5 mg/kg/injection, schedule: Q01DX005 (ip), vehicle: water): 166 % of control and 194 % of control and 271 % of control

COC(=O)CCc1c(C)nc(N(C)C)oc1=O
T/C (dose: 60.0 mg/kg/injection, schedule: Q01DX005 (ip), vehicle: saline): 100 % of control
T/C (dose: 120.0 mg/kg/injection, schedule: Q01DX005 (ip), vehicle: saline): 100 % of control
T/C (dose: 240.0 mg/kg/injection, schedule: Q01DX005 (ip), vehicle: saline): 99 % of control

CS(=O)(=O)OCCN(CCOS(C)(=O)=O)c1ccc(N=Nc2ccccc2)cc1
T/C [3]: 156 % of control and 176 % of control
T/C [4]: 160 % of control

C1=C\CCCCCCCC/1
T/C (dose: 1.56 mg/kg/injection, schedule: Q01DX009 (ip), vehicle: saline with Tween-80): 100 % of control
T/C (dose: 3.13 mg/kg/injection, schedule: Q01DX009 (ip), vehicle: saline with Tween-80): 91 % of control
T/C [5]: 100 % of control
T/C (dose: 6.25 mg/kg/injection, schedule: Q04DX003 (ip), vehicle: saline): 109 % of control
T/C [1]: 100 % of control
T/C [2]: 104 % of control

O=S(=O)(O)c1cccc(/C(=N\Nc2ccccn2)c2ccccn2)c1
T/C (dose: 50.0 mg/kg/injection, schedule: Q01DX009 (ip), vehicle: saline with Tween-80): 100 % of control
T/C (dose: 100.0 mg/kg/injection, schedule: Q01DX009 (ip), vehicle: saline with Tween-80): 102 % of control
T/C (dose: 200.0 mg/kg/injection, schedule: Q01DX009 (ip), vehicle: saline with Tween-80): 100 % of control

OC(c1cc2cc(Br)ccc2c2cc(Br)ccc12)C1CCCCN1 (stereo not drawn)
T/C [5]: 107 % of control
T/C [3]: 109 % of control
T/C [4]: 101 % of control

CC1=CC2=C(C(N)=O)C(=O)OC2(C)C(c2ccccc2)C1 (stereo not drawn)
T/C [6]: 101 % of control
T/C [7]: 101 % of control
T/C [8]: 100 % of control

CC1=CC(=O)C(/C=C(\C)[N+](=O)[O-])=CC1=O
T/C (dose: 12.5 mg/kg/injection, schedule: Q01DX009 (ip), vehicle: Klucel (hydroxypropylcellulose) (HPC)): 97 % of control
T/C (dose: 25.0 mg/kg/injection, schedule: Q01DX009 (ip), vehicle: Klucel (hydroxypropylcellulose) (HPC)): 99 % of control

Cc1ccc2nc(CC(=O)c3ccc(F)cc3)c(=O)[nH]c2c1
T/C [6]: 100 % of control
T/C [7]: 100 % of control
T/C [8]: 107 % of control

COC(=O)C1=C(C(=O)OC)C2(C)OC1c1ccccc12 (stereo not drawn)
T/C (dose: 15.0 mg/kg/injection, schedule: Q01DX005 (ip), vehicle: saline with Tween-80): 106 % of control
T/C (dose: 30.0 mg/kg/injection, schedule: Q01DX005 (ip), vehicle: saline with Tween-80): 106 % of control
T/C [6]: 100 % of control and 102 % of control
